# Measured values from US10851108B2, “Substituted bicyclic heterocyclic compounds” (BRISTOL-MYERS SQUIBB COMPANY, priority 2016, dated 2020).
# pIC50: −log10 of the molar value.
# Molecular target: hROMK (human Kir1.1) (Homo sapiens (Human), UniProt P48048)
# Test: Thallium Flux Assay
# Type: cell-based
# Details: CHO T-Rex hROMK stable cell line, 10-point concentration response; read-out: hROMK Th+ Flux IC50
# Procedure: Solutions and reagents: Thallium flux assay was performed using FluxOR kit (F10017, Life Technologies). Loading buffer, assay buffer and stimulus buffer were prepared using kit components. HBSS (Hank's balanced salt solution, Cat #14025-092) was purchased separately from Life Technologies.
# To prepare 10 ml of loading buffer: 10 μl of FluxOR dye (reconstituted in DMSO) was first added to 100 μl of powerload concentrate and this mix along with 100 μl of Probenicid (100×) was then added to 9.79 ml of HBSS. Assay buffer (10 ml) was prepared by addition of 2 ml of FluxOR chloride free buffer (5×), 100 μl of Probenicid (100×), and 0.2 ml of Ouabain (13.77 mM) to 7.7 ml of deionized water. Stimulus buffer was composed of 15 mM Tl2SO4, 0.75 mM K2SO4 in FluxOR chloride free buffer (diluted to 1× using deionized water). The final concentration of Tl2SO4 and K2SO4 in the assay plate was 3 mM and 0.15 mM, respectively.
# Plating and induction of cells: The CHO T-Rex hROMK (human Kir1.1) stable cell line was maintained in Ham's F12 media supplemented with 10% FBS, 1% Penicillin-Streptomycin, 500 μg/ml Zeocin and 10 μg/ml Blasticidin at 37° C. in a 5% CO2 incubator. One day before the experiment, the cells were dissociated by incubation with Versene solution (15040-066, Life Technologies) for 10 minutes at 37° C. followed by addition of growth media. The cell suspension was centrifuged at 1200 rpm for 5 min. After discarding the supernatant, the cells were resuspended in fresh growth media and cell concentration was determined using a hemocytometer. Next, 0.5 μg/ml of Doxycycline was added to the cell suspension to induce hROMK channel expression and 50 μl (10,000 cells/well) of cell suspension was added to each well of a poly-D lysine coated 384 well black, optically clear bottom plate (6007718, Perkin Elmer). The assay plate was kept at 37° C. in a 5% CO2 incubator.
# Assay protocol: On the day of experiment, media was removed and loading buffer was added (30 μl/well) to the assay plate. The cells were incubated in the loading buffer for 30 minutes at 37° C. The loading buffer was then replaced by assay buffer (30 μl/well) followed by addition of test compounds or controls. The cells were incubated with compounds for 30 minutes and the plate was then mounted on FlexStation (Molecular Devices) for fluorescence read out with excitation and emission wavelengths at 488 and 525 nm, respectively. Each well was read for 90 sec at 2 sec interval and the stimulus buffer was added after 20 seconds of baseline recording. The final DMSO concentration was either 0.5 or 1% in the assay plate. […] controls were defined by addition of DMSO or 3 μM of a standard ROMK inhibitor, respectively, to the wells instead of a test compound.
# A 10-point concentration response curve was used to estimate the IC50 value of test compounds.
# The data in Table 3 is reported with two significant figures.
# Chain of hROMK (human Kir1.1) (P48048 whole entry): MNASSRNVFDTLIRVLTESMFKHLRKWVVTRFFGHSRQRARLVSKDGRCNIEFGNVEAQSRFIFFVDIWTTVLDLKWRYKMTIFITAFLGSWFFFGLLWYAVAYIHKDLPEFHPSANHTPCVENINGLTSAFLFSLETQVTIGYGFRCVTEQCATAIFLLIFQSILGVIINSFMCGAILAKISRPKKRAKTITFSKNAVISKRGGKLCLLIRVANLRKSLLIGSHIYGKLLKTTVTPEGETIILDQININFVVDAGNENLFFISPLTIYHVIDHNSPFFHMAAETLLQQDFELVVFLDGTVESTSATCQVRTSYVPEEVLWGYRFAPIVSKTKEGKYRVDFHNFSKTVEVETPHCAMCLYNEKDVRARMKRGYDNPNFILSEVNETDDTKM
row,SMILES,pIC50
1,"Cc1c(CN2Cc3cnc(Nc4ccc(C#N)c(F)c4)nc3CC2CO)ccc2c1COC2=O (stereo not shown) [Example 57-II, 2-fluoro-4-((7-(hydroxymethyl)-6-((4-methyl-1-oxo-1,3-dihydroisobenzo-furan-5-yl)methyl)-5,6,7,8-tetrahydro-pyrido[4,3-d]pyrimidin-2-yl)amino) benzonitrile]",6.17
2,"Cc1c(CN2Cc3cnc(Nc4ccc(C#N)c(F)c4)nc3CC2CO)ccc2c1COC2=O (single isomer, unassigned) [Example 57-I, 2-fluoro-4-((7-(hydroxymethyl)-6-((4-methyl-1-oxo-1,3-dihydroisobenzo-furan-5-yl)methyl)-5,6,7,8-tetrahydro-pyrido[4,3-d]pyrimidin-2-yl)amino) benzonitrile]",6.08
3,"N#Cc1ccc(Nc2ccc3c(c2)CCN(CCc2ccc4c(c2)COC4=O)C3)cc1F [Example 6, 2-fluoro-4-((2-(2-(1-oxo-1,3-dihydroisobenzofuran-5-yl)ethyl)-1,2,3,4-tetrahydroisoquinolin-6-yl)amino)benzonitrile]",6.92
4,"Cc1c(C(O)CN2CCc3nc(-n4ccc5cc(C#N)ccc54)ncc3C2)ccc2c1COC2=O (single isomer, unassigned) [Example 16-II, 1-(6-(2-hydroxy-2-(4-methyl-1-oxo-1,3-dihydroisobenzofuran-5-yl)ethyl)-5,6,7,8-tetrahydropyrido[4,3-d]pyrimidin-2-yl)-1H-indole-5-carbonitrile]",6.42
5,"Cc1c(C(O)CN2CCc3nc(-n4ccc5c(C#N)ccnc54)ncc3C2)ccc2c1COC2=O (single isomer, unassigned) [Example 19-II, 1-(6-(2-hydroxy-2-(4-methyl-1-oxo-1,3-dihydroisobenzofuran-5-yl)ethyl)-5,6,7,8-tetrahydropyrido[4,3-d]pyrimidin-2-yl)-1H-pyrrolo[2,3-b]pyridine-4-carbonitrile]",5.72

# Continued, values first:
row,pIC50,SMILES
1,7.08,"Cc1c(C(O)CN2CCc3nc(-n4cc(C#N)c5ccccc54)ncc3C2)ccc2c1COC2=O (single isomer, unassigned) [Example 8-II, 1-(6-(2-hydroxy-2-(4-methyl-1-oxo-1,3-dihydroisobenzofuran-5-yl)ethyl)-5,6,7,8-tetrahydropyrido[4,3-d]pyrimidin-2-yl)-1H-indole-3-carbonitrile]"
2,6.31,"CCOC(=O)c1cnc2cnn(-c3ncc4c(n3)CCN(CC(O)c3ccc5c(c3C)COC5=O)C4)c2c1 (single isomer, unassigned) [Example 51-I, ethyl 1-(6-(2-hydroxy-2-(4-methyl-1-oxo-1,3-dihydroisobenzofuran-5-yl)ethyl)-5,6,7,8-tetrahydropyrido[4,3-d]pyrimidin-2-yl)-1H-pyrazolo[4,3-b]pyridine-6-carboxylate]"
3,6.34,"Cc1c(C(O)CN2CCc3nc(-n4ccc5c(C#N)ccnc54)ncc3C2)ccc2c1COC2=O (single isomer, unassigned) [Example 19-I, 1-(6-(2-hydroxy-2-(4-methyl-1-oxo-1,3-dihydroisobenzofuran-5-yl)ethyl)-5,6,7,8-tetrahydropyrido[4,3-d]pyrimidin-2-yl)-1H-pyrrolo[2,3-b]pyridine-4-carbonitrile]"
4,5.52,"Cc1c(C(CO)N2CCc3nc(-n4cc(C#N)c5ccccc54)ncc3C2)ccc2c1COC2=O (single isomer, unassigned) [Example 9-I, 1-(6-(2-hydroxy-1-(4-methyl-1-oxo-1,3-dihydroisobenzofuran-5-yl)ethyl)-5,6,7,8-tetrahydropyrido[4,3-d]pyrimidin-2-yl)-1H-indole-3-carbonitrile]"
5,6.42,"COc1cc(Nc2ncc3c(n2)CCN(CC(O)c2ccc4c(c2C)COC4=O)C3)ncc1C#N (single isomer, unassigned) [Example 64-I, 6-((6-(2-hydroxy-2-(4-methyl-1-oxo-1,3-dihydroisobenzofuran-5-yl)ethyl)-5,6,7,8-tetrahydropyrido[4,3-d]pyrimidin-2-yl)amino)-4-methoxynicotinonitrile]"
